# Test system: human peripheral blood mononuclear cells
# Assay: Inhibition of LPS-stimulated TNFα release from human peripheral blood mononuclear cells (TNFα screen)
# Assay type: cell-based
# Conditions: LPS-stimulated human PBMC, 18 hours incubation, TNFα in supernatant by ELISA
# Procedure: Venous blood is collected from healthy volunteers and the mononuclear cells purified by centrifugation through Histopaque (Ficoll) cushions. TNFα production from these cells is stimulated by addition of lipopolysaccharide. After 18 hours incubation in the presence of LPS, the cell supernatant is removed and the concentration of TNFα in the supernatant determined by ELISA.
row,Compound,IC50
1,"CSc1cccc(Oc2ncc(F)cc2C(=O)N[C@H]2CC[C@@H](NC(=O)c3ccc(CO)cc3O)CC2)c1 [Example 2, Syn-5-Fluoro-N-[4-(2-hydroxy-4-hydroxymethyl-benzoylamino)-cyclohexyl]-2-(3-methylsulfanyl-phenoxy)-nicotinamide]",0.6 nM
2,"CSc1cccc(Oc2ncc(F)cc2C(=O)N[C@H]2CC[C@@H](NC(=O)c3cn(CCO)cn3)CC2)c1 [Example 3, Syn-5-Fluoro-N-(4-{[1-(2-hydroxy-ethyl)-1H-imidazole-4-carbonyl]-amino}-cyclohexyl)-2-(3-methylsulfanyl-phenoxy)-nicotinamide]",1.6 nM
3,"CSc1cc(Oc2ncc(F)cc2C(=O)N[C@H]2CC[C@@H](NC(=O)c3ccccc3OCCO)CC2)ccc1F [Example 9, Syn-5-Fluoro-2-(4-fluoro-3-methylsulfanyl-phenoxy)-N-{4-[2-(2-hydroxy-ethoxy)-benzoylamino]-cyclohexyl}-nicotinamide]",0.36 nM
4,"CSc1cccc(Oc2ncc(F)cc2C(=O)N[C@H]2CC[C@@H](NC(=O)c3cc(C(C)C)n(CCO)n3)CC2)c1 [Example 10, Syn-5-Fluoro-N-(4-{[1-(2-hydroxy-ethyl)-5-isopropyl-1H-pyrazole-3-carbonyl]-amino}-cyclohexyl)-2-(3-methylsulfanyl-phenoxy)-nicotinamide]",2.5 nM
5,Syn-5-Chloro-N-{4-[2-(2-hydroxy-ethoxy)-benzoylamino]-cyclohexyl}-2-(3-methylsulfanyl-phenoxy)-nicotinamide [Example 18],0.15 nM
6,Syn-5-Fluoro-N-(4-{[1-(2-hydroxy-ethyl)-1H-pyrazole-3-carbonyl]-amino}-cyclohexyl)-2-(3-methylsulfanyl-phenoxy)-nicotinamide [Example 5],0.24 nM
7,Syn-5-Fluoro-N-(4-{[1-(2-hydroxy-ethyl)-1H-pyrazole-4-carbonyl]-amino}-cyclohexyl)-2-(3-methylsulfanyl-phenoxy)-nicotinamide [Example 7],4.6 nM
8,Syn-5-Fluoro-N-(4-{[1-(2-hydroxy-ethyl)-5-methyl-1H-pyrazole-3-carbonyl]-amino}-cyclohexyl)-2-(3-methylsulfanyl-phenoxy)-nicotinamide [Example 8],0.2 nM
9,Syn-5-Fluoro-N-{4-[2-(2-hydroxy-ethoxy)-3-methyl-benzoylamino]-cyclohexyl}-2-(3-methylsulfanyl-phenoxy)-nicotinamide [Example 13],0.07 nM
10,Syn-5-Fluoro-N-{4-[2-(2-hydroxy-ethoxy)-4-methyl-benzoylamino]-cyclohexyl}-2-(3-methylsulfanyl-phenoxy)-nicotinamide [Example 12],0.3 nM
11,Syn-5-Fluoro-N-{4-[2-(2-hydroxy-ethoxy)-5-methyl-benzoylamino]-cyclohexyl}-2-(3-methylsulfanyl-phenoxy)-nicotinamide [Example 11],0.8 nM
12,Syn-N-(4-{[5-Ethyl-1-(2-hydroxy-ethyl)-1H-pyrazole-3-carbonyl]-amino}-cyclohexyl)-5-fluoro-2-(3-methylsulfanyl-phenoxy)-nicotinamide [Example 17],0.05 nM
13,Syn-N-{4-[4-Chloro-2-(2-hydroxy-ethoxy)-benzoylamino]-cyclohexyl}-5-fluoro-2-(3-methylsulfanyl-phenoxy)-nicotinamide [Example 15],1.6 nM
14,Syn-N-{4-[5-Chloro-2-(2-hydroxy-ethoxy)-benzoylamino]-cyclohexyl}-5-fluoro-2-(3-methylsulfanyl-phenoxy)-nicotinamide [Example 14],0.6 nM
